Holding throughout (experiment): inhibition of tumour cell growth, NCI panel, 48 h
The subject of assay [1] is EKVX.
Assay [2] deals with SN12C.
In assay [3] the test system is OVCAR-3.
The test system of assay [4] is NCI-H23.
In assay [5] the test system is MOLT-4.
Assay [6] relates to COLO 205.
Assay [7] concerns SW-620.
The subject of assay [8] is A549.
Assay [9] has as its system RPMI-8226.
In assay [10] the test system is SR.
Assay [11] deals with DU-145.
The test system of assay [12] is UACC-257.
The test system of assay [13] is UACC-62.
In assay [14] the test system is NCI-H522.
The test system of assay [15] is MDA-MB-231.
In assay [16] the test system is U-251.
Assay [17] deals with PC-3.
The test system of assay [18] is HOP-92.
The subject of assay [19] is CAKI-1.

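Where inhibition never reached the appropriate level, the endpoint shown equals the highest concentration tested. Otherwise, values were interpolated linearly from a five-concentration, 48-hour dose response in 96-well plates. GI50 = concentration required for 50% inhibition of growth.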 Active and inactive are the calls of the source. Rule as the data show it: active = GI50 up to about 1.1 µM and inactive = higher. *1 amine or outer side, *2 acyl side, *3 side chain or, on linkers, in order; H or OH if unused. Where a SMILES comes first, the peptide text is derived from it. [ ]: non-standard residue; d: D form. The star is where a group is joined. X31 = CC(=O)N(C)SCC(N[*:1])C(=O)[*:2]; Fmoc = O=C(OCC1c2ccccc2-c2ccccc21)*; For = O=C*

Regarding `CC(=O)N(C)SCC(NC(=O)C(Cc1ccccc1)NC(=O)OCC1c2ccccc2-c2ccccc21)C(=O)NC(Cc1ccccc1)C(=O)NC(Cc1cn(C=O)c2ccccc12)C(=O)NC(CCCCNC(=O)OCC1c2ccccc2-c2ccccc21)C(=O)NC(C(=O)NC(CSN(C)C(C)=O)C(=O)NC(C(N)=O)C(C)O)C(C)O` (stereo not given) (Fmoc-F[X31]FW(For)K(Fmoc)T[X31]T-NH2; configuration not given here), the GI50 is 84.9 µM (inactive) in assay [1]; > 100 µM (inactive) in assay [2]; > 100 µM (inactive) in assay [3]; 20.8 µM (inactive) in [4]; > 100 µM (inactive) in assay [5]; 36.6 µM (inactive) in assay [6]. The GI50 in assay [7] is > 100 µM (inactive); in [8] it was > 100 µM (inactive); in [9] it was > 100 µM (inactive); in [10], 76.9 µM (inactive); in [11], > 100 µM (inactive); in [12], 90.2 µM (inactive). For the same molecule, the GI50 in assay [13] was 58.6 µM (inactive); in assay [14], 89.7 µM (inactive); in [15], 14.9 µM (inactive); in [16] it was > 100 µM (inactive); in [17] it was 97.1 µM (inactive); in assay [18], 14.5 µM (inactive).

For `C=C1C(=O)OC2C1CC(O)/C(C)=C\CCC1(C)OC21` (stereo not given), the GI50 in assay [1] is 36.7 µM (inactive); in assay [3], 17.4 µM (inactive); in assay [4], 31.3 µM (inactive); in assay [5], 7.35 µM (inactive); in [6], 29.8 µM (inactive); in [7], 38.8 µM (inactive). Moreover, the GI50 in assay [8] is 35.5 µM (inactive); in [9], 21.4 µM (inactive); in [10], 20.2 µM (inactive); in [11], 32.8 µM (inactive); in [12] it was 34 µM (inactive); in assay [13], 21.2 µM (inactive). The GI50 in [14] was 14.8 µM (inactive); in [15] it was 15.5 µM (inactive); in [16], 20.3 µM (inactive); in assay [17] it was 23.2 µM (inactive); in assay [18] it was 34.6 µM (inactive).

As for `C/C(=N\NC(=O)c1ccc(Cl)cc1)c1nc2cccnc2[nH]1`, the GI50 in [1] is 43 µM (inactive); in assay [2], 27.6 µM (inactive); in assay [3], 22.9 µM (inactive); in assay [4] it was 33.8 µM (inactive); in assay [5], 14.3 µM (inactive); in [6], 30.5 µM (inactive). The GI50 in [19] was 28.8 µM (inactive); in assay [7] it was 28.9 µM (inactive); in assay [8] it was 30.2 µM (inactive); in [9], 27 µM (inactive); in assay [10], 18 µM (inactive); in assay [11] it was 49 µM (inactive). Besides, the GI50 in assay [12] was 20 µM (inactive); in assay [13] it was 20.7 µM (inactive); in assay [14] it was 18.7 µM (inactive); in assay [15], 36.8 µM (inactive); in assay [16], 8.93 µM (inactive); in assay [17], > 100 µM (inactive).

Take `COc1cc(S(=O)(=O)Nc2nc(-c3ccc(N4C(=O)/C(=C/c5ccccc5[N+](=O)[O-])N=C4c4ccccc4)cc3)cs2)ccc1Cl`: the GI50 was > 100 µM (inactive) in assay [2]; 29.5 µM (inactive) in assay [3]; 29.9 µM (inactive) in assay [4]; 37.7 µM (inactive) in assay [5]; > 100 µM (inactive) in assay [6]; > 100 µM (inactive) in assay [19]. The GI50 in [7] was > 100 µM (inactive); in assay [8], > 100 µM (inactive); in [10] it was 34.3 µM (inactive); in assay [11], > 100 µM (inactive); in assay [12], > 100 µM (inactive); in assay [13] it was 27 µM (inactive). The GI50 in assay [14] was 48.3 µM (inactive); in assay [15], 19.9 µM (inactive); in assay [16], 46.6 µM (inactive); in assay [17], 47 µM (inactive); in [18], 88.3 µM (inactive).

Turning to `C=C[C@]1(O)CCC[C@]2(C)C(=O)CCC12C` (stereo not given in full), the GI50 in assay [1], in assay [2], in [3], in assay [4], in assay [5] and in [6] was > 100 µM (inactive) throughout. Further, the GI50 in assay [7], in [8], in assay [9], in assay [10], in assay [11] and in [12] was > 100 µM (inactive) throughout. The GI50 in assay [13], in assay [14], in assay [15], in assay [16], in assay [17] and in [18] was > 100 µM (inactive) in each case.

Regarding `COC(=O)c1cc(NC(=O)Cn2c3ccccc3c3ccccc32)cn1C`, the GI50 in assay [1] is 34 µM (inactive); in assay [2], 55.3 µM (inactive); in assay [3], > 100 µM (inactive); in assay [4], 39.3 µM (inactive); in assay [5], 61 µM (inactive); in assay [6], 45 µM (inactive). Moreover, the GI50 in [19] is 84.5 µM (inactive); in [7] it was > 100 µM (inactive); in assay [8], 26.7 µM (inactive); in assay [9], 19.5 µM (inactive); in assay [10], 49.5 µM (inactive); in assay [11] it was > 100 µM (inactive). For the same molecule, the GI50 in [12] was 53.8 µM (inactive); in assay [13], 17.1 µM (inactive); in assay [14], 28.3 µM (inactive); in assay [15], 20.1 µM (inactive); in assay [16] it was 26.4 µM (inactive); in assay [17], 31 µM (inactive).

`Cc1nc2cc3ccccc3cc2[nH]c1=O`: the GI50 in assay [1] is 0.805 µM (active); in [2], > 100 µM (inactive); in assay [3], 68.1 µM (inactive); in assay [4], 89.5 µM (inactive); in assay [5], 44 µM (inactive); in [6] it was > 100 µM (inactive). In addition, the GI50 in [19] is 38.1 µM (inactive); in assay [7], > 100 µM (inactive); in assay [8], > 100 µM (inactive); in assay [10], 78.3 µM (inactive); in [11] it was > 100 µM (inactive); in assay [12] it was > 100 µM (inactive). The GI50 in assay [13] is 36.3 µM (inactive); in assay [14], 59.4 µM (inactive); in assay [15], 72.3 µM (inactive); in [16], 55.1 µM (inactive); in [17], > 100 µM (inactive); in assay [18] it was 26.1 µM (inactive).

Take `COC(=O)N1C[C@@]2(C=CC3(CC2)OCCO3)c2ccccc21`: the GI50 is 62.1 µM (inactive) in [1]; > 100 µM (inactive) in [2]; > 100 µM (inactive) in [3]; 95.7 µM (inactive) in [4]; 58.3 µM (inactive) in assay [5]; > 100 µM (inactive) in [6]. Besides, the GI50 in [19] was > 100 µM (inactive); in assay [7] it was 40.8 µM (inactive); in [8] it was > 100 µM (inactive); in assay [9], 61.1 µM (inactive); in assay [10], 49.7 µM (inactive); in [11] it was > 100 µM (inactive). For the same molecule, the GI50 in [12] was 71.3 µM (inactive); in assay [13], 65.5 µM (inactive); in assay [15], > 100 µM (inactive); in assay [16] it was 41.1 µM (inactive); in [17], 63.7 µM (inactive); in [18] it was 44.1 µM (inactive).

With `CC(C)=CCC[C@@H](C)C1=C(O)C(=O)C(C)=C(Nc2ccccc2)C1=O`, the GI50 in [1] is 24.2 µM (inactive); in [2], 23.9 µM (inactive); in assay [3] it was 9.2 µM (inactive); in assay [4] it was 24.9 µM (inactive); in assay [5] it was 6.82 µM (inactive); in assay [6] it was 22.6 µM (inactive). Further, the GI50 is 15.1 µM (inactive) in [19]; 22.8 µM (inactive) in assay [7]; 16.9 µM (inactive) in [8]; 43.2 µM (inactive) in assay [9]; 28 µM (inactive) in assay [10]; 24.2 µM (inactive) in assay [11]. The GI50 is 28.1 µM (inactive) in [12]; 13 µM (inactive) in assay [13]; 22.5 µM (inactive) in [15]; 12.5 µM (inactive) in assay [16]; 23.9 µM (inactive) in [17]; 23.5 µM (inactive) in assay [18].

Regarding `O=C1NC(NCc2ccc(F)cc2)=N/C1=C\c1ccccc1Cl`, the GI50 is 19.8 µM (inactive) in [1]; 14.8 µM (inactive) in assay [2]; 16.5 µM (inactive) in assay [3]; 12.9 µM (inactive) in assay [5]; 17.4 µM (inactive) in assay [6]; 23.9 µM (inactive) in [19]. Further, the GI50 in [7] was 13.5 µM (inactive); in assay [8] it was 17.2 µM (inactive); in assay [10], 14.1 µM (inactive); in assay [11], 19.9 µM (inactive); in assay [12] it was 24.9 µM (inactive); in [13] it was 15.7 µM (inactive). Besides, the GI50 is 13.8 µM (inactive) in assay [14]; 17.8 µM (inactive) in [15]; 14.7 µM (inactive) in assay [16]; 15.9 µM (inactive) in [17]; 6.97 µM (inactive) in [18].

As to `Cc1[nH]n(-c2ccccc2)c(=O)c1C(N(CCc1ccccc1)C1=NCC(C)S1)(C(F)(F)F)C(F)(F)F` (stereo not given), the GI50 in assay [1] is 11.3 µM (inactive); in assay [2], 17.8 µM (inactive); in assay [3], 8.77 µM (inactive); in assay [4] it was 5.16 µM (inactive); in assay [5] it was 20.5 µM (inactive); in assay [6] it was 6.27 µM (inactive). Also, the GI50 in assay [19] is 13.5 µM (inactive); in assay [7] it was 18.1 µM (inactive); in [8], 15.1 µM (inactive); in assay [10], 22.3 µM (inactive); in assay [11] it was 27.2 µM (inactive); in assay [12], 16 µM (inactive). Further, the GI50 is 8.71 µM (inactive) in assay [13]; 4.35 µM (inactive) in assay [14]; 18.8 µM (inactive) in assay [15]; 7.41 µM (inactive) in assay [16]; 16.1 µM (inactive) in assay [17]; 0.352 µM (active) in assay [18].

(Values after ChEMBL document CHEMBL1201862, “PubChem BioAssay data set” (2004).)
